# According to US9149038B2, “4-amino-6-(heterocyclic)picolinates and 6-amino-2-(heterocyclic)pyrimidine-4-carboxylates and their use as herbicides” (Dow AgroSciences LLC, priority 2013, dated 2015):
# Read-outs that look alike come from different tables or passages of the source.
# Assays:
# [1] = tested on: Key Broadleaf Weed and Crop Species; assay: Post-Emergent Test II: postemergent herbicidal activity, visual rating after 14 d (Table 7); format: in vivo; settings: post-emergence, 336 h; for pest or weed control at 35 g/ha: 35 g ai/ha; for pest or weed control at 70 g/ha: 70 g ai/ha; for pest or weed control at 140 g/ha: 140 g ai/ha
# In short: (§1)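 Track-sprayed young seedlings (first/second true leaf) at 187 L/ha across a 2-fold rate series from the high rate down to 1/16×. Kept in greenhouse at 23-29° C day, subirrigated. Injury rated by eye after 14 d, 0 = no injury, 100 = complete kill.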
# [2] = tested on: Key Grass and Sedge Weeds as well as Grass Crops; assay: Post-Emergent Test II: postemergent herbicidal activity, visual rating after 14 d (Table 8); format: in vivo; settings: post-emergence, 336 h; for pest or weed control at 35 g/ha: 35 g ai/ha; for pest or weed control at 70 g/ha: 70 g ai/ha; for pest or weed control at 140 g/ha: 140 g ai/ha
# In short: as §1
# [3] = lambsquarters (Chenopodium album), read-out: Visual Growth Reduction (%) 14 Days After Application CHEAL
# [4] = oilseed rape, canola (Brassica napus), read-out: Visual Growth Reduction (%) 14 Days After Application BRSNN
# [5] = redroot pigweed (Amaranthus retroflexus), read-out: Visual Growth Reduction (%) 14 Days After Application AMARE
# [6] = sunflower (Helianthus annuus), read-out: Visual Growth Reduction (%) 14 Days After Application HELAN
# [7] = velvetleaf (Abutilon theophrasti), read-out: Visual Growth Reduction (%) 14 Days After Application ABUTH
# [8] = wild poinsettia (Euphorbia heterophylla), read-out: Visual Growth Reduction (%) 14 Days After Application EPHHL
# [9] = barnyardgrass (Echinochloa crus-galli), read-out: Visual Growth Reduction (%) 14 Days After Application ECHCG
# [10] = giant foxtail (Setaria faberi), read-out: Visual Growth Reduction (%) 14 Days After Application SETFA
# [11] = maize, corn (Zea mays), read-out: Visual Growth Reduction (%) 14 Days After Application ZEAMX
# [12] = rice (Oryza sativa), read-out: Visual Growth Reduction (%) 14 Days After Application ORYSA
# [13] = wheat, spring (Triticum aestivum), read-out: Visual Growth Reduction (%) 14 Days After Application TRZAS
# [14] = yellow nutsedge (Cyperus esculentus), read-out: Visual Growth Reduction (%) 14 Days After Application CYPES
Structure (SMILES),"pest or weed control at 35 g/ha [1, 3] [%]","pest or weed control at 70 g/ha [1, 3] [%]","pest or weed control at 140 g/ha [1, 3] [%]","pest or weed control at 35 g/ha [1, 4] [%]","pest or weed control at 70 g/ha [1, 4] [%]","pest or weed control at 140 g/ha [1, 4] [%]","pest or weed control at 35 g/ha [1, 5] [%]","pest or weed control at 70 g/ha [1, 5] [%]","pest or weed control at 140 g/ha [1, 5] [%]","pest or weed control at 35 g/ha [1, 6] [%]","pest or weed control at 70 g/ha [1, 6] [%]","pest or weed control at 140 g/ha [1, 6] [%]","pest or weed control at 35 g/ha [1, 7] [%]","pest or weed control at 70 g/ha [1, 7] [%]","pest or weed control at 140 g/ha [1, 7] [%]","pest or weed control at 35 g/ha [1, 8] [%]","pest or weed control at 70 g/ha [1, 8] [%]","pest or weed control at 140 g/ha [1, 8] [%]","pest or weed control at 35 g/ha [2, 9] [%]","pest or weed control at 70 g/ha [2, 9] [%]",also measured
"COC(=O)c1nc(-c2ccc(Br)c3c2OC(F)(F)O3)c(F)c(N)c1Cl [Compound 78, Methyl 4-amino-6-(7-bromo-2,2-difluorobenzo[d][1,3]dioxol-4-yl)-3-chloro-5-fluoropicolinate]",95 to 100,95 to 100,95 to 100,60 to 74,75 to 84,75 to 84,95 to 100,95 to 100,95 to 100,95 to 100,95 to 100,95 to 100,85 to 94,85 to 94,85 to 94,0 to 29,0 to 29,0 to 29,0 to 29,0 to 29,"pest or weed control at 140 g/ha [2, 9]: 0 to 29%; pest or weed control at 35 g/ha [2, 10]: 0 to 29%; pest or weed control at 70 g/ha [2, 10]: 0 to 29%; pest or weed control at 140 g/ha [2, 10]: 0 to 29%; pest or weed control at 35 g/ha [2, 11]: 60 to 74%; pest or weed control at 70 g/ha [2, 11]: 60 to 74%; pest or weed control at 140 g/ha [2, 11]: 60 to 74%; pest or weed control at 35 g/ha [2, 12]: 0 to 29%; pest or weed control at 70 g/ha [2, 12]: 0 to 29%; pest or weed control at 140 g/ha [2, 12]: 0 to 29%; pest or weed control at 35 g/ha [2, 13]: 0 to 29%; pest or weed control at 70 g/ha [2, 13]: 0 to 29%; pest or weed control at 140 g/ha [2, 13]: 0 to 29%; pest or weed control at 35 g/ha [2, 14]: 0 to 29%; pest or weed control at 70 g/ha [2, 14]: 0 to 29%; pest or weed control at 140 g/ha [2, 14]: 0 to 29%"
COC(=O)c1nc(-c2ccc3c(c2)OC(C)(C)O3)nc(N)c1Cl [Compound 55],45 to 59,60 to 74,75 to 84,0 to 29,0 to 29,0 to 29,45 to 59,85 to 94,95 to 100,45 to 59,60 to 74,75 to 84,75 to 84,75 to 84,75 to 84,95 to 100,95 to 100,95 to 100,75 to 84,75 to 84,"pest or weed control at 140 g/ha [2, 9]: 75 to 84%; pest or weed control at 35 g/ha [2, 10]: 75 to 84%; pest or weed control at 70 g/ha [2, 10]: 85 to 94%; pest or weed control at 140 g/ha [2, 10]: 85 to 94%; pest or weed control at 35 g/ha [2, 11]: 60 to 74%; pest or weed control at 70 g/ha [2, 11]: 60 to 74%; pest or weed control at 140 g/ha [2, 11]: 60 to 74%; pest or weed control at 35 g/ha [2, 12]: 0 to 29%; pest or weed control at 70 g/ha [2, 12]: 0 to 29%; pest or weed control at 140 g/ha [2, 12]: 0 to 29%; pest or weed control at 35 g/ha [2, 13]: 0 to 29%; pest or weed control at 70 g/ha [2, 13]: 0 to 29%; pest or weed control at 140 g/ha [2, 13]: 0 to 29%; pest or weed control at 35 g/ha [2, 14]: 0 to 29%; pest or weed control at 70 g/ha [2, 14]: 0 to 29%; pest or weed control at 140 g/ha [2, 14]: 0 to 29%"
COC(=O)c1nc(-c2c(F)cc3c(c2F)OC(F)(F)O3)cc(N)c1Cl [Compound 46],95 to 100,95 to 100,95 to 100,95 to 100,95 to 100,95 to 100,95 to 100,95 to 100,95 to 100,0 to 29,30 to 44,60 to 74,85 to 94,95 to 100,95 to 100,30 to 44,60 to 74,85 to 94,45 to 59,60 to 74,"pest or weed control at 140 g/ha [2, 9]: 85 to 94%; pest or weed control at 35 g/ha [2, 10]: 0 to 29%; pest or weed control at 70 g/ha [2, 10]: 0 to 29%; pest or weed control at 140 g/ha [2, 10]: 0 to 29%; pest or weed control at 35 g/ha [2, 11]: 0 to 29%; pest or weed control at 70 g/ha [2, 11]: 45 to 59%; pest or weed control at 140 g/ha [2, 11]: 75 to 84%; pest or weed control at 35 g/ha [2, 12]: 0 to 29%; pest or weed control at 70 g/ha [2, 12]: 0 to 29%; pest or weed control at 140 g/ha [2, 12]: 0 to 29%; pest or weed control at 35 g/ha [2, 13]: 0 to 29%; pest or weed control at 70 g/ha [2, 13]: 30 to 44%; pest or weed control at 140 g/ha [2, 13]: 45 to 59%; pest or weed control at 35 g/ha [2, 14]: 95 to 100%; pest or weed control at 70 g/ha [2, 14]: 95 to 100%; pest or weed control at 140 g/ha [2, 14]: 95 to 100%"
Nc1c(F)c(-c2ccc3c(c2)OC(F)(F)O3)nc(C(=O)O)c1Cl [Compound 7],95 to 100,95 to 100,95 to 100,85 to 94,85 to 94,95 to 100,75 to 84,95 to 100,95 to 100,95 to 100,95 to 100,95 to 100,85 to 94,85 to 94,95 to 100,95 to 100,95 to 100,95 to 100,95 to 100,95 to 100,"pest or weed control at 140 g/ha [2, 9]: 95 to 100%; pest or weed control at 35 g/ha [2, 10]: 95 to 100%; pest or weed control at 70 g/ha [2, 10]: 95 to 100%; pest or weed control at 140 g/ha [2, 10]: 95 to 100%; pest or weed control at 35 g/ha [2, 11]: 95 to 100%; pest or weed control at 70 g/ha [2, 11]: 95 to 100%; pest or weed control at 140 g/ha [2, 11]: 95 to 100%; pest or weed control at 35 g/ha [2, 12]: 30 to 44%; pest or weed control at 70 g/ha [2, 12]: 30 to 44%; pest or weed control at 140 g/ha [2, 12]: 60 to 74%; pest or weed control at 35 g/ha [2, 13]: 45 to 59%; pest or weed control at 70 g/ha [2, 13]: 60 to 74%; pest or weed control at 140 g/ha [2, 13]: 60 to 74%; pest or weed control at 35 g/ha [2, 14]: 95 to 100%; pest or weed control at 70 g/ha [2, 14]: 95 to 100%; pest or weed control at 140 g/ha [2, 14]: 95 to 100%"
